Experimental data: paper PMC12446476 (Nature Communications, 2025)
≈ marks a conversion by molar mass, not a printed value. Read-outs that look alike come from different tables or passages of the source.

Tested on: non-gonococcal Neisseria
Assay: MIC determination for non-gonococcal Neisseria, agar dilution
Type: cell-based, Neisseria species
Settings: read-out: Minimum inhibitory concentration
Description: The 2024 WHO N. gonorrhoeae reference strains were used for quality control. Only whole MIC doubling dilutions are reported. Clinical breakpoints or the epidemiological cutoff (ECOFF, to indicate azithromycin resistance) from EUCAST (v14.0, https://www.eucast.org/clinical_breakpoints) were used to classify isolates as antimicrobial susceptible or resistant. […] Two times the standard inoculum defined by CLSI was used to establish consistent growth in untreated control samples for some strains. In vitro time-kill assays were performed according to CLSI guidelines[65] using Columbia Broth (BD Difco) supplemented with 1% IsoVitaleX Enrichment (BD). Viable bacterial counts were generated by plating 10-fold serially diluted samples on GC agar plates containing 1% IsoVitaleX Enrichment (BD).

In the case of `Cc1c(CN(C)C(=O)/C=C/c2cnc3c(c2)N[C@H](C)[C@H](O)C(=O)N3)oc2ccccc12` [Debio 1453], the MIC (Neisseria mucosa 4, Replicate 1) is reported as 1 µg/mL (≈ 2.38 µM), the MIC (Neisseria mucosa 4, Replicate 2) is reported as 1 µg/mL (≈ 2.38 µM) and the MIC (Neisseria mucosa 4, Replicate 3) is reported as 1 µg/mL (≈ 2.38 µM). For the same compound, the MIC (Neisseria mucosa 5, Consensus) was 0.5 µg/mL (≈ 1.19 µM), the MIC (Neisseria mucosa 5, Replicate 1) was 0.25 µg/mL (≈ 0.595 µM) and the MIC (Neisseria mucosa 5, Replicate 2) was 0.5 µg/mL (≈ 1.19 µM). It also gave an MIC (Neisseria mucosa 5, Replicate 3) of 0.5 µg/mL (≈ 1.19 µM), an MIC (Neisseria mucosa 6, Consensus) of 0.5 µg/mL (≈ 1.19 µM) and an MIC (Neisseria mucosa 6, Replicate 1) of 0.25 µg/mL (≈ 0.595 µM). The MIC (Neisseria mucosa 6, Replicate 2) was 0.5 µg/mL (≈ 1.19 µM), the MIC (Neisseria mucosa 6, Replicate 3) was 0.5 µg/mL (≈ 1.19 µM) and the MIC (Neisseria mucosa 7, Consensus) was 0.25 µg/mL (≈ 0.595 µM). The MIC (Neisseria mucosa 7, Replicate 1) was 0.25 µg/mL (≈ 0.595 µM), the MIC (Neisseria mucosa 7, Replicate 2) was 0.25 µg/mL (≈ 0.595 µM) and the MIC (Neisseria mucosa 7, Replicate 3) was 0.25 µg/mL (≈ 0.595 µM). It also gave an MIC (Neisseria mucosa 8, Consensus) of 1 µg/mL (≈ 2.38 µM), an MIC (Neisseria mucosa 8, Replicate 1) of 1 µg/mL (≈ 2.38 µM) and an MIC (Neisseria mucosa 8, Replicate 2) of 1 µg/mL (≈ 2.38 µM). For the same compound, the MIC (Neisseria mucosa 8, Replicate 3) was 1 µg/mL (≈ 2.38 µM), the MIC (Neisseria mucosa 9, Consensus) was 2 µg/mL (≈ 4.76 µM) and the MIC (Neisseria mucosa 9, Replicate 1) was 1 µg/mL (≈ 2.38 µM). For the same compound, the MIC (Neisseria mucosa 9, Replicate 2) was 2 µg/mL (≈ 4.76 µM), the MIC (Neisseria mucosa 9, Replicate 3) was 2 µg/mL (≈ 4.76 µM) and the MIC (Neisseria perflava 1, Consensus) was 0.25 µg/mL (≈ 0.595 µM). It also gave an MIC (Neisseria perflava 1, Replicate 1) of 0.25 µg/mL (≈ 0.595 µM), an MIC (Neisseria perflava 1, Replicate 2) of 0.25 µg/mL (≈ 0.595 µM) and an MIC (Neisseria perflava 1, Replicate 3) of 0.25 µg/mL (≈ 0.595 µM). It also gave an MIC (Neisseria perflava 2, Consensus) of 0.032 µg/mL (≈ 0.0761 µM), an MIC (Neisseria perflava 2, Replicate 1) of 0.032 µg/mL (≈ 0.0761 µM) and an MIC (Neisseria perflava 2, Replicate 2) of 0.032 µg/mL (≈ 0.0761 µM). It also gave an MIC (Neisseria perflava 2, Replicate 3) of 0.032 µg/mL (≈ 0.0761 µM), an MIC (Neisseria perflava 3, Consensus) of 0.032 µg/mL (≈ 0.0761 µM) and an MIC (Neisseria perflava 3, Replicate 1) of 0.032 µg/mL (≈ 0.0761 µM). For the same compound, the MIC (Neisseria perflava 3, Replicate 2) was 0.032 µg/mL (≈ 0.0761 µM), the MIC (Neisseria perflava 3, Replicate 3) was 0.032 µg/mL (≈ 0.0761 µM) and the MIC (Neisseria perflava 4, Consensus) was 0.25 µg/mL (≈ 0.595 µM). It also gave an MIC (Neisseria perflava 4, Replicate 1) of 0.25 µg/mL (≈ 0.595 µM), an MIC (Neisseria perflava 4, Replicate 2) of 0.25 µg/mL (≈ 0.595 µM) and an MIC (Neisseria perflava 4, Replicate 3) of 0.25 µg/mL (≈ 0.595 µM). It also gave an MIC (Neisseria perflava 6, Consensus) of 0.25 µg/mL (≈ 0.595 µM), an MIC (Neisseria perflava 6, Replicate 1) of 0.25 µg/mL (≈ 0.595 µM) and an MIC (Neisseria perflava 6, Replicate 2) of 0.5 µg/mL (≈ 1.19 µM). It also gave an MIC (Neisseria perflava 6, Replicate 3) of 0.25 µg/mL (≈ 0.595 µM), an MIC (Neisseria perflava 7, Consensus) of 0.5 µg/mL (≈ 1.19 µM) and an MIC (Neisseria perflava 7, Replicate 1) of 0.5 µg/mL (≈ 1.19 µM). For the same compound, the MIC (Neisseria perflava 7, Replicate 2) was 0.5 µg/mL (≈ 1.19 µM), the MIC (Neisseria perflava 7, Replicate 3) was 0.5 µg/mL (≈ 1.19 µM) and the MIC (Neisseria perflava 8, Consensus) was 0.25 µg/mL (≈ 0.595 µM). The MIC (Neisseria perflava 8, Replicate 1) was 0.25 µg/mL (≈ 0.595 µM), the MIC (Neisseria perflava 8, Replicate 2) was 0.5 µg/mL (≈ 1.19 µM) and the MIC (Neisseria perflava 8, Replicate 3) was 0.25 µg/mL (≈ 0.595 µM). For the same compound, the MIC (Neisseria perflava 9, Consensus) was 0.5 µg/mL (≈ 1.19 µM), the MIC (Neisseria perflava 9, Replicate 1) was 0.25 µg/mL (≈ 0.595 µM) and the MIC (Neisseria perflava 9, Replicate 2) was 0.5 µg/mL (≈ 1.19 µM). For the same compound, the MIC (Neisseria perflava 9, Replicate 3) was 0.5 µg/mL (≈ 1.19 µM), the MIC (Neisseria perflava 10, Consensus) was 0.5 µg/mL (≈ 1.19 µM) and the MIC (Neisseria perflava 10, Replicate 1) was 0.5 µg/mL (≈ 1.19 µM). For the same compound, the MIC (Neisseria perflava 10, Replicate 2) was 0.5 µg/mL (≈ 1.19 µM), the MIC (Neisseria perflava 10, Replicate 3) was 0.5 µg/mL (≈ 1.19 µM) and the MIC (Neisseria perflava 11, Consensus) was 1 µg/mL (≈ 2.38 µM). The MIC (Neisseria perflava 11, Replicate 1) was 1 µg/mL (≈ 2.38 µM), the MIC (Neisseria perflava 11, Replicate 2) was 1 µg/mL (≈ 2.38 µM) and the MIC (Neisseria perflava 11, Replicate 3) was 0.5 µg/mL (≈ 1.19 µM). It also gave an MIC (Neisseria perflava 12, Consensus) of 0.5 µg/mL (≈ 1.19 µM), an MIC (Neisseria perflava 12, Replicate 1) of 0.5 µg/mL (≈ 1.19 µM) and an MIC (Neisseria perflava 12, Replicate 2) of 0.5 µg/mL (≈ 1.19 µM). For the same compound, the MIC (Neisseria perflava 12, Replicate 3) was 0.5 µg/mL (≈ 1.19 µM), the MIC (Neisseria perflava 13, Consensus) was 0.25 µg/mL (≈ 0.595 µM) and the MIC (Neisseria perflava 13, Replicate 1) was 0.25 µg/mL (≈ 0.595 µM). It also gave an MIC (Neisseria perflava 13, Replicate 2) of 0.25 µg/mL (≈ 0.595 µM), an MIC (Neisseria perflava 13, Replicate 3) of 0.25 µg/mL (≈ 0.595 µM) and an MIC (Neisseria perflava 14, Consensus) of 0.5 µg/mL (≈ 1.19 µM). The MIC (Neisseria perflava 14, Replicate 1) was 0.5 µg/mL (≈ 1.19 µM), the MIC (Neisseria perflava 14, Replicate 2) was 0.5 µg/mL (≈ 1.19 µM) and the MIC (Neisseria perflava 14, Replicate 3) was 0.5 µg/mL (≈ 1.19 µM). For the same compound, the MIC (Neisseria perflava 15, Consensus) was 0.5 µg/mL (≈ 1.19 µM), the MIC (Neisseria perflava 15, Replicate 1) was 0.5 µg/mL (≈ 1.19 µM) and the MIC (Neisseria perflava 15, Replicate 2) was 0.5 µg/mL (≈ 1.19 µM). It also gave an MIC (Neisseria perflava 15, Replicate 3) of 0.5 µg/mL (≈ 1.19 µM), an MIC (Neisseria perflava 16, Consensus) of 0.5 µg/mL (≈ 1.19 µM) and an MIC (Neisseria perflava 16, Replicate 1) of 0.5 µg/mL (≈ 1.19 µM). It also gave an MIC (Neisseria perflava 16, Replicate 2) of 0.5 µg/mL (≈ 1.19 µM), an MIC (Neisseria perflava 16, Replicate 3) of 1 µg/mL (≈ 2.38 µM) and an MIC (Neisseria perflava 17, Consensus) of 0.5 µg/mL (≈ 1.19 µM). It also gave an MIC (Neisseria perflava 17, Replicate 1) of 0.5 µg/mL (≈ 1.19 µM), an MIC (Neisseria perflava 17, Replicate 2) of 0.5 µg/mL (≈ 1.19 µM) and an MIC (Neisseria perflava 17, Replicate 3) of 0.5 µg/mL (≈ 1.19 µM). For the same compound, the MIC (Neisseria perflava 18, Replicate 2) was 0.25 µg/mL (≈ 0.595 µM), the MIC (Neisseria perflava 19, Consensus) was 1 µg/mL (≈ 2.38 µM) and the MIC (Neisseria perflava 19, Replicate 1) was 1 µg/mL (≈ 2.38 µM). It also gave an MIC (Neisseria perflava 19, Replicate 2) of 1 µg/mL (≈ 2.38 µM), an MIC (Neisseria perflava 19, Replicate 3) of 1 µg/mL (≈ 2.38 µM) and an MIC (Neisseria perflava 20, Consensus) of 0.5 µg/mL (≈ 1.19 µM). For the same compound, the MIC (Neisseria perflava 20, Replicate 1) was 0.5 µg/mL (≈ 1.19 µM), the MIC (Neisseria perflava 20, Replicate 2) was 0.5 µg/mL (≈ 1.19 µM) and the MIC (Neisseria perflava 20, Replicate 3) was 0.5 µg/mL (≈ 1.19 µM). It also gave an MIC (Neisseria perflava 21, Consensus) of 1 µg/mL (≈ 2.38 µM), an MIC (Neisseria perflava 21, Replicate 1) of 1 µg/mL (≈ 2.38 µM) and an MIC (Neisseria perflava 21, Replicate 2) of 1 µg/mL (≈ 2.38 µM). For the same compound, the MIC (Neisseria perflava 21, Replicate 3) was 1 µg/mL (≈ 2.38 µM), the MIC (Neisseria perflava 22, Consensus) was 1 µg/mL (≈ 2.38 µM) and the MIC (Neisseria perflava 22, Replicate 1) was 1 µg/mL (≈ 2.38 µM). It also gave an MIC (Neisseria perflava 22, Replicate 2) of 1 µg/mL (≈ 2.38 µM), an MIC (Neisseria perflava 22, Replicate 3) of 1 µg/mL (≈ 2.38 µM) and an MIC (Neisseria perflava 23, Consensus) of 0.5 µg/mL (≈ 1.19 µM). For the same compound, the MIC (Neisseria perflava 23, Replicate 1) was 0.5 µg/mL (≈ 1.19 µM), the MIC (Neisseria perflava 23, Replicate 2) was 0.5 µg/mL (≈ 1.19 µM) and the MIC (Neisseria perflava 23, Replicate 3) was 0.5 µg/mL (≈ 1.19 µM). It also gave an MIC (Neisseria perflava 25, Consensus) of 1 µg/mL (≈ 2.38 µM), an MIC (Neisseria perflava 25, Replicate 1) of 1 µg/mL (≈ 2.38 µM) and an MIC (Neisseria perflava 25, Replicate 2) of 1 µg/mL (≈ 2.38 µM).
